The source of these data is PubChem BioAssay (NCI).

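The compound was tested at five concentrations on cells cultured in 96-well plates, with a 48-hour exposure period. Definition used: TGI = concentration required for complete inhibition of growth.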

Assay in all cases: NCI anticancer screen, dose series, 48 h
The subject of assay [1] is HCT-116 colon.
Assay [2] concerns K-562 leukemia.
The test system of assay [3] is MALME-3M melanoma.
In assay [4] the test system is HCC-2998 colon.
The subject of assay [5] is OVCAR-5 ovarian.
Assay [6] deals with UACC-62 melanoma.
In assay [7] the test system is SF-268 CNS.
In assay [8] the test system is HS 578T breast.
Assay [9] relates to OVCAR-3 ovarian.
Assay [10] concerns SK-OV-3 ovarian.
Assay [11] relates to HCT-15 colon.
The test system of assay [12] is SF-295 CNS.
The subject of assay [13] is 786-0 renal.
Assay [14] relates to HOP-62 NSCLC.
Assay [15] deals with A549 NSCLC.
The subject of assay [16] is SK-MEL-28 melanoma.
Assay [17] relates to OVCAR-8 ovarian.
Assay [18] has as its system RXF 393 renal.
Assay [19] deals with NCI-H23 lung.

`COC(=O)c1sc2c(c1C(=O)OC)C(=NC(C)(C)C)SC2=NC(C)(C)C`: the TGI in assay [1] is 30.5 µM; in assay [2], 43.3 µM; in assay [3], 37.8 µM; in assay [4] it was 28.3 µM; in assay [5] it was 37.2 µM; in [6], 33.2 µM. The TGI in assay [7] turned out to be 36 µM; in assay [8], 57.5 µM; in assay [9] it was 36.9 µM; in [10] it was 55.7 µM; in [11], 34.3 µM; in [12], 36.6 µM. Besides, the TGI in assay [13] stood at 30.4 µM; in [14], 39 µM; in assay [15], 41.8 µM; in assay [16], 32 µM; in [17], 42.3 µM; in [18], 19.3 µM. For the same compound, the TGI in assay [19] was 34.5 µM.

Regarding `COc1ccc(CCc2ccc3c(c2)OCO3)cc1`, the TGI in assay [1], in assay [2], in assay [3], in assay [4], in [5] and in [6] was over 100 µM throughout. The TGI in [7], in assay [8], in [9], in assay [10], in assay [11] and in assay [12] was over 100 µM throughout. Also, the TGI in assay [13] is over 100 µM; in [14] it was over 100 µM; in assay [15], over 100 µM; in assay [16], over 100 µM; in assay [17] it was over 100 µM; in assay [18], 86 µM. In [19], this compound showed a TGI of over 100 µM.

As to `O=C1N/C(=N\N=C\c2ccccc2)C2(CCCCC2)O1`, the TGI in assay [1], in assay [2], in assay [3], in [4], in assay [5] and in [6] was over 100 µM in each case. In addition, the TGI in [7], in assay [8], in assay [9], in assay [10], in assay [11] and in [12] was over 100 µM in each case. Also, the TGI in [13], in assay [14], in assay [15], in assay [16], in assay [17] and in assay [18] was over 100 µM throughout. In addition, the TGI in assay [19] was over 100 µM.

On to `CC1=NN(C(=O)CC(=O)NC(=O)/C=C\c2ccccc2)C(=O)C1N=Nc1ccc([N+](=O)[O-])cc1` (stereo not given), for which the TGI in assay [1], in assay [2], in assay [3], in assay [4], in [5] and in assay [6] was over 100 µM in each case. Also, the TGI in assay [7], in assay [8], in assay [9], in assay [10], in [11] and in assay [12] was over 100 µM throughout. For the same compound, the TGI in assay [13], in [14], in assay [15], in [16], in assay [17] and in assay [18] was over 100 µM each time. This compound yielded a TGI in assay [19] of over 100 µM.

On to `CC1CC(=NC2CCCCC2)Nc2ccccc2N1Cc1ccccc1` (stereo not given), for which the TGI in [1] is over 35.6 µM; in assay [2] it was over 36.1 µM; in assay [3], 8.8 µM; in [4], 11.5 µM; in assay [5] it was 24 µM; in [6] it was 3.69 µM. The TGI was 17.3 µM in assay [7]; 19.7 µM in assay [8]; 20.4 µM in [9]; 23.4 µM in assay [10]; 19.1 µM in [11]; 19.4 µM in assay [12]. The TGI was over 39 µM in assay [13]; 20.3 µM in assay [14]; 16.5 µM in assay [15]; 17.7 µM in assay [16]; 19.8 µM in assay [17]; 10.5 µM in [18]. For the same compound, in assay [19], the TGI is 22.3 µM.

For the compound `O=CC(O)C(O)C1OC(=O)c2cc(O)c(O)c(O)c2C2=C(O)C(O)=C3OC(=O)c4c(c(O)c(O)c5c4C3C2C(=O)O5)-c2c(cc(O)c(O)c2O)C(=O)OCC1O` (stereo not given), the TGI was 29 µM in assay [1]; 56.7 µM in assay [2]; over 100 µM in assay [3]; over 100 µM in assay [4]; over 100 µM in [5]; over 100 µM in [6]. Further, the TGI in assay [7] is over 100 µM; in [8], over 100 µM; in assay [9], 57 µM; in [10], over 100 µM; in [11], over 100 µM; in assay [12], over 100 µM. For the same compound, the TGI in [13] is 32.2 µM; in assay [14], over 100 µM; in [15] it was over 100 µM; in assay [16], over 100 µM; in assay [17], 45.9 µM; in [18], over 100 µM. Also, the TGI in assay [19] was over 100 µM.

For the compound `CCOC(=O)c1csc(C(CSCc2ccc(OC)cc2)N2C(=O)c3ccccc3C2=O)n1` (stereo not given), the TGI in assay [1], in [2], in assay [3], in [4], in [5] and in assay [6] was over 100 µM in each case. In addition, the TGI in assay [7], in assay [8], in assay [9], in [10], in [11] and in assay [12] was over 100 µM in each case. For the same compound, the TGI in [13], in assay [14], in assay [15], in assay [16], in assay [17] and in assay [18] was over 100 µM throughout. Besides, in assay [19], the TGI was over 100 µM.

In the case of `O=C(OCc1ccccc1)c1ccc(NCc2cc(O)ccc2O)cc1`, the TGI is 3.02 µM in assay [1]; 6.98 µM in assay [2]; 2.98 µM in assay [3]; 6.12 µM in [4]; 13.9 µM in assay [5]; 3.15 µM in assay [6]. Further, the TGI in assay [7] is 2.99 µM; in [8] it was 5.43 µM; in assay [9] it was 2.38 µM; in [10], 11.2 µM; in assay [11], 2.42 µM; in assay [12] it was 17.1 µM. Further, the TGI in assay [13] turned out to be 2.67 µM; in assay [14], 20.1 µM; in assay [15], 20.5 µM; in assay [16], 3 µM; in [17] it was 2.75 µM; in assay [18], 2.4 µM. The same compound returned a TGI in assay [19] of 3.73 µM.

In the case of `CC(=Nc1cccc(Cl)c1)c1ccncc1`, the TGI in [1], in assay [2], in assay [3], in assay [4], in assay [5] and in [6] was over 100 µM each time. Moreover, the TGI in [7], in assay [8], in assay [9], in [10], in assay [11] and in assay [12] was over 100 µM throughout. The TGI in assay [13], in [14], in assay [15], in [16], in assay [17] and in [18] was over 100 µM in each case. The TGI in assay [19] is over 100 µM.

Turning to `O=c1[nH]nc(-c2ccccc2)n1-c1cccc([N+](=O)[O-])c1`, the TGI in assay [1], in assay [2], in assay [3], in [4], in [5] and in assay [6] was over 100 µM each time. Also, the TGI in assay [7], in [8], in assay [9], in [10], in assay [11] and in assay [12] was over 100 µM in each case. Moreover, the TGI in assay [13], in assay [14], in assay [15], in [16], in [17] and in [18] was over 100 µM throughout. Moreover, the TGI in [19] was over 100 µM.

For `CCN(CC)/[N+]([O-])=N/OCOC`, the TGI in [1], in [2], in assay [3], in assay [4], in assay [5] and in assay [6] was over 100 µM each time. Besides, the TGI in assay [7], in assay [8], in assay [9], in [10], in [11] and in assay [12] was over 100 µM in each case. In addition, the TGI in [13], in assay [14], in assay [15], in assay [16], in [17] and in [18] was over 100 µM throughout. The TGI in assay [19] was over 100 µM.

Regarding `CSC1(C(=O)O)C2CCC3C2CCC31` (stereo not given), the TGI in [1], in assay [2], in [3], in [4], in [5] and in assay [6] was over 100 µM each time. Besides, the TGI in assay [7], in [8], in [9], in assay [10], in [11] and in assay [12] was over 100 µM each time. Also, the TGI in [13], in [14], in assay [15], in [16], in [17] and in [18] was over 100 µM throughout. Moreover, the TGI in [19] is over 100 µM.

Take `CN(/N=C/C=N/N(C)C1=NCCCN1)C1=NCCCN1`: the TGI in assay [1], in assay [2], in [3], in [4], in assay [5] and in [6] was over 100 µM each time. Further, the TGI in assay [7], in assay [8], in assay [9], in [10], in assay [11] and in assay [12] was over 100 µM throughout. The TGI in assay [13], in assay [14], in assay [15], in assay [16], in assay [17] and in assay [18] was over 100 µM in each case. The TGI in [19] is over 100 µM.

Regarding `CN1C(=O)[C@H](c2c[nH]c3ccccc23)[C@H](c2c[nH]c3ccccc23)C1=O`, the TGI was over 59.1 µM in assay [1]; over 69.5 µM in assay [2]; over 100 µM in assay [3]; over 100 µM in [4]; over 100 µM in [5]; over 54.4 µM in [6]. Further, the TGI is over 100 µM in assay [7]; over 86.3 µM in assay [8]; over 56.5 µM in assay [9]; over 100 µM in assay [10]; over 59.9 µM in assay [11]; over 73.7 µM in assay [12]. The TGI is over 91.4 µM in assay [13]; over 64.1 µM in assay [14]; over 100 µM in assay [15]; over 87.6 µM in assay [16]; over 100 µM in [17]; over 90.6 µM in assay [18]. This compound also displayed a TGI in assay [19] of over 65.1 µM.

For `Nc1nc(Cl)c(N)c(NCC2(CO)CCC(CCc3ccccc3)C2)n1` (stereo not given), the TGI worked out at 31.3 µM in [1]; 48 µM in assay [2]; 30.3 µM in [3]; 31.9 µM in [4]; 63.5 µM in assay [5]; 26 µM in assay [6]. In addition, the TGI in assay [7] was 40.2 µM; in [8], over 63.8 µM; in assay [9], 50.3 µM; in [10], 63.8 µM; in [11], 41.8 µM; in assay [12], 29.8 µM. Further, the TGI is 61.2 µM in assay [13]; 36.7 µM in assay [14]; over 100 µM in assay [15]; 31.1 µM in assay [16]; 38.1 µM in assay [17]; 37.2 µM in [18]. The compound further returned a TGI in assay [19] of 28.6 µM.
